Measured values reported in US11518758B2, “Heteroarylaminopyrimidine amide autophagy inhibitors and methods of use thereof” (Deciphera Pharmaceuticals, LLC, priority 2019, dated 2022).

Assays:
[1] = biological target: T1, ULK1 kinase (Homo sapiens, UniProt O75385); test: Biochemical assay for ULK1.2 (coupled pyruvate kinase/lactate dehydrogenase assay); details: 19 nM ULK1 (Eurofins), myelin basic protein, 1 mM ATP
T1 construct: purchased Eurofins 14-959
T1 sequence (O75385 with tags, fused parts or gaps): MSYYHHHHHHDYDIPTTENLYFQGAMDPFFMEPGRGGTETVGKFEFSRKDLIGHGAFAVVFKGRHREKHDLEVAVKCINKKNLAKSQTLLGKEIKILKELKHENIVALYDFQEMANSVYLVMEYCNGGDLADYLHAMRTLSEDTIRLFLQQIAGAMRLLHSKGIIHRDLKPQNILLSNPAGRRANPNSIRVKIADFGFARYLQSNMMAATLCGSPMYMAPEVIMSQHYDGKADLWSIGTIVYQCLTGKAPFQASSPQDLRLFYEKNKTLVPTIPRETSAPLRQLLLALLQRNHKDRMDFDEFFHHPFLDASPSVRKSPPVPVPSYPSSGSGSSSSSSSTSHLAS
Protocol: Example 174. Biochemical Assay for ULK1.2
Activity of ULK1 kinase was determined spectroscopically using a coupled pyruvate kinase/lactate dehydrogenase assay that continuously monitors the ATP hydrolysis-dependent oxidation of NADH (e.g., Schindler et al. Science (2000) 289: 1938-1942). Assays were conducted in 384-well plates (100 uL final volume) using 19 nM ULK1 (Eurofins CAT #14-959), 0.25 mg/mL myelin basic protein, 1.5 units pyruvate kinase, 2.1 units lactate dehydrogenase, 1 mM phosphoenol pyruvate, 0.28 mM NADH and 1 mM ATP in assay buffer (100 mM Tris, pH 7.5, 15 mM MgCl2, 0.5 mM DTT, 0.1% octyl-glucoside, 0.002% (w/v) BSA, and 0.002% Triton X-100). Inhibition of ULK1 was measured by adding serial diluted test compound (final assay concentration of 1% DMSO). A decrease in absorption at 340 nm was monitored continuously for 6 hours at 30° C. on a multi-mode microplate reader (BioTek). The reaction rate was calculated using the 2-3 h time frame. The reaction rate at each concentration of compound was converted to percent inhibition using controls (i.e. reaction with no test compound and reaction with a known inhibitor) and IC50 values were calculated by fitting a four-parameter sigmoidal curve to the data using Prism (GraphPad software).

[2] = system: phospho-Serine 318 ATG13 (pATG13), ULK kinase substrate, in A549 (KRAS mutant) cells; test: pATG13 levels of mutant KRas A549 cells after treatment with ULK inhibitors in combination with trametinib (ELISA); type: cell-based, human; details: with 250 nM trametinib
Protocol: Example 177. Cellular Inhibition of ULK Kinase Substrate ATG13 Protein pATG13 Levels of Mutant KRas A549 Cells after Treatment with ULK Inhibitors in Combination with Trametinib
A549 (KRAS mutant) human lung cancer cells (6,000 cells/well) were added to a 384-well tissue-culture treated plate in 50 μL of pre-warmed DMEM medium supplemented with 10% characterized fetal bovine serum (Invitrogen, Carlsbad, Calif.), 100 units/mL penicillin G, and 100 μg/mL streptomycin and allowed to grow overnight at 37° C., 5% CO2, and 95% humidity. The following day, 10 μL of media containing trametinib or DMSO as a control was added to wells. The final concentration of trametinib in wells was 250 nM. A dose response of a test compound (0.6 μL per well) was added. DMSO (0.6 μL) was added to control wells. The plate was briefly shaken to mix wells and then incubated at 37° C. overnight. The next day, the media was aspirated and cells were washed with Dulbecco's Phosphate Buffered Saline (Gibco). Cells were lysed using MPER lysis buffer (Pierce, Rockford, Ill.) containing Halt Phosphatase and Protease Inhibitors (Pierce, Rockford, Ill.) and Phosphatase inhibitor cocktail 2 (Sigma, St. Louis, Mo.) at 4° C. for 10 minutes with shaking.
Cellular levels of phospho-Serine 318 ATG13 (pATG13) were measured via an ELISA method. Total ATG13 Antibody (Cell Signaling Cat #13273) was used to coat the wells. The plate was incubated at 4° C. overnight and washed with ELISA wash buffer (Biolegend Cat #421601). The wells were then blocked with assay diluent (Biolegend Cat #421203) for 1 hour at room temperature. Plate wells were washed with ELISA wash buffer. Cell lysate was added to wells and incubated at room temperature for 2 hours. Plate wells were washed with ELISA wash buffer. Biotinylated pS318-ATG13 antibody (Rockland Immunochemicals Cat #600-401-C49) was diluted in assay diluent and added to each well and incubated at room temperature for 1 hour. Plate wells were washed with ELISA wash buffer. Streptavidin linked to horseradish peroxidase (Thermo Fisher Cat #21140) was diluted in assay diluent and added to each well and incubated at room temperature for 1 hour. Plate wells were washed with ELISA wash buffer. High sensitivity TMB substrate (Biolegend Cat #421101) was added to each well and incubated at room temperature for 20 minutes. The reaction was stopped with 2N Sulfuric Acid. The plate was analyzed at on a plate reader measuring absorbance at 450 nm and 540 nm (background). Signal was calculated by first subtracting the background absorbance at 540 nm from the absorbance at 450 nm for each well. Next, the background corrected absorbance at 450 nm from blank wells was subtracted from test wells. Data was compared to control wells to determine % ATG13 phosphorylation. GraphPad Prism was used to calculate IC50 values.

[3] = biological target: T2, LRRK2 kinase (Homo sapiens, UniProt Q5S007); test: Biochemical assay for LRRK2 (coupled pyruvate kinase/lactate dehydrogenase assay); details: 26.4 nM LRRK2 (residues 970-2528), 0.1 mM peptide substrate, 1 mM ATP
T2 construct: purchased Thermo Fisher
T2 sequence (Q5S007 with tags, fused parts or gaps): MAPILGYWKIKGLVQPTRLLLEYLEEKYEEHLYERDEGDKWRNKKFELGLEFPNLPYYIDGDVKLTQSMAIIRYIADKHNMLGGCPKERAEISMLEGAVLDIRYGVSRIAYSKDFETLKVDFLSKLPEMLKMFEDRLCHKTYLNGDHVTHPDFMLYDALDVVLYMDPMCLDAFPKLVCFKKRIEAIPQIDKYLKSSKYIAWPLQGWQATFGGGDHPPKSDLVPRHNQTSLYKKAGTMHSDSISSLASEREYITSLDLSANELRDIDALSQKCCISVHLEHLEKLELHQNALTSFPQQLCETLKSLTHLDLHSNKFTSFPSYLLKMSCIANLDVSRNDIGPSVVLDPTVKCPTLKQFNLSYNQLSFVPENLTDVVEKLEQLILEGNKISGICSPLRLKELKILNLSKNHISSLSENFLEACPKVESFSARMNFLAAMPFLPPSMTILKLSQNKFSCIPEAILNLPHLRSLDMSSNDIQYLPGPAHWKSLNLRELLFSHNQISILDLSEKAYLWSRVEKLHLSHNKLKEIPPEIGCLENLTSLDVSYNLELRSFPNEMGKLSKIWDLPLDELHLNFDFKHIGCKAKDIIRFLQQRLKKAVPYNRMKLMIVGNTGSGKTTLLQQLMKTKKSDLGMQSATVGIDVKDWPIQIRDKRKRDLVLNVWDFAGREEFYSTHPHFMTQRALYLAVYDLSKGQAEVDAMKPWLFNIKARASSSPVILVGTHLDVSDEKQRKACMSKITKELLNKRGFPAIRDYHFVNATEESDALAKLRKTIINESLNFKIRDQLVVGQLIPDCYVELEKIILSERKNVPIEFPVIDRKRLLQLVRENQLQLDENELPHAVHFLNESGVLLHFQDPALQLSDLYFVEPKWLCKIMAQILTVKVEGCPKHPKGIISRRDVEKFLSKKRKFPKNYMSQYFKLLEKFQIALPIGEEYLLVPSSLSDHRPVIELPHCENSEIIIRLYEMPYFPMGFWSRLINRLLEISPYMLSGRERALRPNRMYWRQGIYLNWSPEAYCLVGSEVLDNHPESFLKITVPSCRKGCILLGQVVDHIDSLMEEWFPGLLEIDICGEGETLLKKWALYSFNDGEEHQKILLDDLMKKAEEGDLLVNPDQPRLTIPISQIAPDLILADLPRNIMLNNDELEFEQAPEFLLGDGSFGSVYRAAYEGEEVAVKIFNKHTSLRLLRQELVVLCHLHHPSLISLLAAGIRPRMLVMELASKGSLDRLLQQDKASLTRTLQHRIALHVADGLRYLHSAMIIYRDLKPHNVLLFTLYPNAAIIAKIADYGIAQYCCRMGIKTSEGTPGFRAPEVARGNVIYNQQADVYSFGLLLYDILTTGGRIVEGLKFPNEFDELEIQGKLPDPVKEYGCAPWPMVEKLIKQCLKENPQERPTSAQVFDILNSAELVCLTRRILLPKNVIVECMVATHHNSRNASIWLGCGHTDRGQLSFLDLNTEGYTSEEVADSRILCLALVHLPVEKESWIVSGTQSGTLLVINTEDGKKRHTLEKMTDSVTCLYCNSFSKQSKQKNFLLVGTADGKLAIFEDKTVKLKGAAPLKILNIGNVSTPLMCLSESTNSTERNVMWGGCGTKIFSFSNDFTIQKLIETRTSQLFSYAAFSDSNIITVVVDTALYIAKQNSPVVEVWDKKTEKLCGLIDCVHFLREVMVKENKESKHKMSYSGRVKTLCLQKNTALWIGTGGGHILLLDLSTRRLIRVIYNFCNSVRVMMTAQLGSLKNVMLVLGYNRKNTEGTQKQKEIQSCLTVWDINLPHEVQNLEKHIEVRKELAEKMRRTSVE
Protocol: Example 182. Biochemical Assay for LRRK2 (SEQ. ID NO. 4)
Activity of LRRK2 kinase was determined spectroscopically using a coupled pyruvate kinase/lactate dehydrogenase assay that continuously monitors the ATP hydrolysis-dependent oxidation of NADH (e.g., Schindler et al. Science (2000) 289: 1938-1942). Assays were conducted in 384-well plates (100 uL final volume) using 26.4 nM LRRK2 (Thermo Fisher), 0.1 mM peptide substrate (RLGRDKYKTLRQIRQ (SEQ ID NO: 6)), 1.5 units pyruvate kinase, 2.1 units lactate dehydrogenase, 1 mM phosphoenol pyruvate, 0.28 mM NADH and 1 mM ATP in assay buffer (100 mM Tris, pH 7.5, 15 mM MgCl2, 0.5 mM DTT, 0.004% (w/v) BSA, and 0.004% Triton X-100). Inhibition of LRRK2 was measured by adding serial diluted test compound (final assay concentration of 1% DMSO). A decrease in absorption at 340 nm was monitored continuously for 6 hours at 30° C. on a multi-mode microplate reader (BioTek). The reaction rate was calculated using the 2-3 h time frame. The reaction rate at each concentration of compound was converted to percent inhibition using controls (i.e. reaction with no test compound and reaction with a known inhibitor) and IC50 values were calculated using software routines in Prism (GraphPad software).

SMILES	IC50 [1] [nM]	IC50 [2] [nM]	IC50 [3] [nM]
O=C1CCCCN1CCCNc1nc(Nc2cnn(C3CCN(CC4CC4)CC3)c2)ncc1Cl [Example 3]	1 to 25	10 to 100	–
O=C1CCCCN1CCCNc1nc(Nc2cnn(C3CCNCC3)c2)ncc1Br [Example 9]	1 to 25	> 600	–
CC(C)CN1CC(n2cc(Nc3ncc(C(F)(F)F)c(NCCCN4CCCCC4=O)n3)cn2)C1 [Example 12]	25 to 100	300 to 600	–
[2H]C([2H])([2H])C([2H])(N1CCC(n2cc(Nc3ncc(C(F)(F)F)c(NCCCN4CCCCC4=O)n3)cn2)CC1)C([2H])([2H])[2H] [Example 13]	1 to 25	100 to 300	–
CC(C)CN1CC(n2cc(Nc3ncc(Br)c(NCCCN4CCCCC4=O)n3)cn2)C1 [Example 17]	25 to 100	100 to 300	–
Cc1nn(CCCN2CCCC2)cc1Nc1ncc(C(F)(F)F)c(NCCCN2CCCCC2=O)n1 [Example 20]	25 to 100	100 to 300	–
Cc1nn(C2CN(CC(C)C)C2)cc1Nc1ncc(C(F)(F)F)c(NCCCN2CCCCC2=O)n1 [Example 23]	25 to 100	–	> 600
Cc1nn(CCN2CCOCC2)cc1Nc1ncc(C(F)(F)F)c(NCCCN2CCCCC2=O)n1 [Example 29]	> 500	–	> 600
[2H]C([2H])([2H])N1CCC(n2cc(Nc3ncc(C(F)(F)F)c(NCCCN4CCCCC4=O)n3)c(C)n2)CC1 [Example 31]	1 to 25	100 to 300	–
Cc1nn(C2CCN(C3COC3)CC2)cc1Nc1ncc(C(F)(F)F)c(NCCCN2CCCCC2=O)n1 [Example 33]	100 to 500	–	300 to 600
Cc1nn(C2CN(CC(C)C)C2)cc1Nc1ncc(Cl)c(NCCCN2CCCCC2=O)n1 [Example 38]	> 500	–	> 600
CCc1nn(C2CCNCC2)cc1Nc1ncc(Cl)c(NCCCN2CCCCC2=O)n1 [Example 39]	100 to 500	–	> 600
Cc1nn(CCN2CCCC2)cc1Nc1ncc(C(F)(F)F)c(NCCCN2CCCCC2=O)n1 [Example 45]	100 to 500	–	> 600
Cc1nn(C2CCNCC2)cc1Nc1ncc(I)c(NCCCN2CCCCC2=O)n1 [Example 48]	1 to 25	> 600	–
Cc1nn(C2CCN(C)CC2)cc1Nc1ncc(Cl)c(NCCCN2CCCCC2=O)n1 [Example 56]	100 to 500	–	> 600
CCN1CCC(n2cc(Nc3ncc(Cl)c(NCCCN4CCCCC4=O)n3)c(C)n2)CC1 [Example 58]	100 to 500	300 to 600	–
Cc1nn(CCN2CCCC2)cc1Nc1ncc(Br)c(NCCCN2CCCCC2=O)n1 [Example 62]	100 to 500	–	> 600
CC1(C)CCC(=O)N1CCCNc1nc(Nc2cnn(C3CCN(C4CC4)CC3)c2)ncc1C1CC1 [Example 69]	> 500	–	> 600

SMILES	IC50 [1] [nM]	IC50 [2] [nM]	IC50 [3] [nM]
CC(C)N1CCC(n2cc(Nc3ncc(C(F)(F)F)c(NCCCN4CCOCC4=O)n3)cn2)CC1 [Example 74]	25 to 100	> 600	–
CN1CCC(n2cc(Nc3ncc(C4CC4)c(NCCCN4CCCC4=O)n3)cn2)CC1 [Example 84]	100 to 500	–	> 600
CCN1CCC(n2cc(Nc3ncc(C(F)(F)F)c(NCCCN4CCCCCC4=O)n3)c(C)n2)CC1 [Example 90, 1-(3-((2-((1-(1-ethylpiperidin-4-yl)-3-methyl-1H-pyrazol-4-yl)amino)-5-(trifluoromethyl)pyrimidin-4-yl)amino)propyl)azepan-2-one]	1 to 25	10 to 100	–
CCC(C)N1CCC(n2cc(Nc3ncc(C(F)(F)F)c(NCCCN4CCCCCC4=O)n3)c(C)n2)CC1 (stereo not shown) [Example 94]	1 to 25	10 to 100	–
Cc1nn(CCN2CCOCC2)cc1Nc1ncc(C(F)(F)F)c(NCCCN2CCCCCC2=O)n1 [Example 98]	100 to 500	–	100 to 300
Cc1nn(C2CCN(C(C)C)CC2)cc1Nc1ncc(Cl)c(NCCCN2CCCOCC2=O)n1 [Example 110]	> 500	–	100 to 300
Cc1nn(C2CCN(C)CC2)cc1Nc1ncc(C2CC2)c(NCCCN2CCCOCC2=O)n1 [Example 111]	> 500	–	> 600
Cc1nn(C2CCN(C)CC2)cc1Nc1ncc(Cl)c(NCCCN2CCOCCC2=O)n1 [Example 132]	100 to 500	–	> 600
Cc1nn(CCCN2CCOCC2)cc1Nc1ncc(Cl)c(NCCCN2CCOCCC2=O)n1 [Example 135]	> 500	–	> 600
CC1CCC(=O)N1CCCNc1nc(Nc2cnn(C3CCN(C4CC4)CC3)c2)ncc1Cl (stereo not shown) [Example 150]	100 to 500	–	100 to 300
Cc1nn(C2CCN(C)CC2)cc1Nc1ncc(C(F)(F)F)c(NCCCN2CCN(C)C2=O)n1 [Example 152]	25 to 100	100 to 300	–
CC1(C)CCN(CCCNc2nc(Nc3cnn(C4CCN(C5CC5)CC4)c3)ncc2Br)C1=O [Example 153]	100 to 500	–	300 to 600
C[C@@H](CCNc1nc(Nc2cnn(C3CCN(C4CC4)CC3)c2)ncc1Cl)N1CCCC1=O [Example 156]	> 500	–	300 to 600
C[C@@H](CCNc1nc(Nc2cnn(C3CCN(C)CC3)c2)ncc1Cl)N1CCCC1=O [Example 157]	> 500	–	> 600
CC(C)CN1CC(n2cc(Nc3ncc(Cl)c(NCCCN4CCCC4=O)n3)cn2)C1 [Example 159]	> 500	–	> 600
Cc1nn([C@@H]2CCNC2)cc1Nc1ncc(Br)c(NCCCN2CCCC2=O)n1 [Example 164]	100 to 500	–	300 to 600
CC(C)CN1CC(n2cc(Nc3ncc(Br)c(NCCCN4CCCC4=O)n3)cn2)C1 [Example 165]	100 to 500	–	300 to 600
